Measured values from patent publication US5656603A (Loyola University of Chicago, priority 1995, dated 1997).

Assays:
[1] = biological target: T1, angiotensin converting enzyme (EC 3.4.15.1) (Bos taurus, UniProt P12820); test: Specificity of apstatin: angiotensin converting enzyme; assay type: biochemical; details: detergent extract of bovine lung; Hip-His-Leu, pH 6.5, HPLC-1
T1 construct: Unless otherwise indicated, the source of each enzyme activity was a detergent extract of bovine lung; from tissue; host or cells: detergent extract of bovine lung
T1 sequence (P12820 29-1306): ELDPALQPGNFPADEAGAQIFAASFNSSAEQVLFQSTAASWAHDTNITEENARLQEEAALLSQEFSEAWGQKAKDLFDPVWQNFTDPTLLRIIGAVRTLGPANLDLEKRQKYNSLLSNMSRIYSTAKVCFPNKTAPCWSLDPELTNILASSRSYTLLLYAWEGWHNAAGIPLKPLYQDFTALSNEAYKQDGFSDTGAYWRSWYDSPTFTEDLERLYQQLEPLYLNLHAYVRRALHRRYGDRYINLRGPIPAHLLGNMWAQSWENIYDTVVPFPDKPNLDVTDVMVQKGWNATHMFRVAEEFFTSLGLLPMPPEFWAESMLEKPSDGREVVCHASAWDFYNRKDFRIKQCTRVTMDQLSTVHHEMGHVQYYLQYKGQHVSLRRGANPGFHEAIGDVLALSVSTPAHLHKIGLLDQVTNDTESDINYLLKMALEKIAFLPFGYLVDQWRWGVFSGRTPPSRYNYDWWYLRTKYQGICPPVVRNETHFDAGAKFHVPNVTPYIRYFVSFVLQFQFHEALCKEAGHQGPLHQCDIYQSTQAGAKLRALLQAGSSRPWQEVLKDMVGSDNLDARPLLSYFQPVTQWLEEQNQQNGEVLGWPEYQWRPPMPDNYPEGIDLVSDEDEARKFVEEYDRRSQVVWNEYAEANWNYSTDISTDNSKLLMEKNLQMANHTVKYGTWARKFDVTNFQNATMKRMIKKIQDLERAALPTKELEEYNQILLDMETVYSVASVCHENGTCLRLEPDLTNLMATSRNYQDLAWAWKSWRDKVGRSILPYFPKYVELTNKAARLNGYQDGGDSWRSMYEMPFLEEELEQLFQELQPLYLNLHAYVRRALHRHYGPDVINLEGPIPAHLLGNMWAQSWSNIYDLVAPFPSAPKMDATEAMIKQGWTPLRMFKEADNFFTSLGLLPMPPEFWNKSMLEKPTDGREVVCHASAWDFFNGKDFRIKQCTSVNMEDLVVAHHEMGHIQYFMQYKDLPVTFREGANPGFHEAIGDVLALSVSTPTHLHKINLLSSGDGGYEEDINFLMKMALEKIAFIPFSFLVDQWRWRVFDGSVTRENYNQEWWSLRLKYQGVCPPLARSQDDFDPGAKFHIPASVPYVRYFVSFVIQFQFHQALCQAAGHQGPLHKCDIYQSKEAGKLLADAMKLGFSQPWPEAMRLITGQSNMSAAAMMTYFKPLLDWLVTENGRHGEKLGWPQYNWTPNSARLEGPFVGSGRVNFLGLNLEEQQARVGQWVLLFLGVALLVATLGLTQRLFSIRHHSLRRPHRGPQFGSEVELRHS
Description: (§1) Specificity of Apstatin--Apstatin was assayed for its ability to inhibit several other peptidases. […] Unless otherwise indicated, the source of each enzyme activity was a detergent extract of bovine lung prepared as described in (12-13). Activities were determined by a modification of the fluorescent assay described above (indicated by "FLUO") or by HPLC separation and quantitation of reaction products using the method described in (12) (method "HPLC-1") or the method described below (method "HPLC-2"). […]

[2] = biological target: bestatin-sensitive/amastatin-insensitive membrane dipeptidase; test: Specificity of apstatin: bestatin-sensitive/amastatin-insensitive membrane dipeptidase; assay type: biochemical; details: bovine lung microsomes; Arg-Trp, pH 6.8, FLUO
Description: as §1

endopeptidase 24.15 = biological target: T2, endopeptidase 24.15 (Rattus norvegicus, UniProt P24155); test: Specificity of apstatin: endopeptidase 24.15; assay type: biochemical; details: rat brain synaptosomes; Bk(2-9), pH 6.8, HPLC-1
T2 construct: endopeptidase 24.15 (EC 3.4.24.15) (rat brain synaptosomes); from tissue; host or cells: rat brain synaptosomes
T2 sequence (P24155 whole entry): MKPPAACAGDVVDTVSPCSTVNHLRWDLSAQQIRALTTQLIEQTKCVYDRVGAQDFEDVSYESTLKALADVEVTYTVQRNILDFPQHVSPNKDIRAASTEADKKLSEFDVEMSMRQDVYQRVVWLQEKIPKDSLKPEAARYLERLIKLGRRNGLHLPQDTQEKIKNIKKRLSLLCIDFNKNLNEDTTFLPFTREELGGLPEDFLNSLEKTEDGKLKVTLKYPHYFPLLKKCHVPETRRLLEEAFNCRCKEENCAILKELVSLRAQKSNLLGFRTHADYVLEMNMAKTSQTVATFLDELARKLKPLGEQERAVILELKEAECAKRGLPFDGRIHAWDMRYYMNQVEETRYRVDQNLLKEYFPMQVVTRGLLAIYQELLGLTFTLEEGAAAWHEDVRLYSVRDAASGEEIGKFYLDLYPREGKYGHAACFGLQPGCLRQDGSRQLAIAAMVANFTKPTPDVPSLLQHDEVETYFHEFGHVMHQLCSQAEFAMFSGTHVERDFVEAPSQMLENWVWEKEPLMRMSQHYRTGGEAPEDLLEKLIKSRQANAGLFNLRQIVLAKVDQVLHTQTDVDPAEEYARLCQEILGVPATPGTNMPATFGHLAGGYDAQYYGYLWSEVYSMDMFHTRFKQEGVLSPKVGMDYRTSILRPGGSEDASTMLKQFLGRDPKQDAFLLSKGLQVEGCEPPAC
Description: as §1

[3] = system: blood pressure response to Bk; test: Blood pressure response to intravenous bradykinin in the rat; assay type: in vivo; details: rats; intravenously, administered over a one hour period
Description: While aminopeptidase P appears to be quantitatively less important than ACE, there is now evidence that aminopeptidase P is nevertheless a physiologically important regulator of the blood pressure response to Bk in the rat (15,41). […] Thus, aminopeptidase P appears to play a significant role in the pulmonary degradation of Bk.
See e.g., Table 2. […] A typical therapeutically effective dose of a compound of the present invention is from about 0.008 mg/kg to 8.0 mg/kg, when given intravenously.

Q: Which results are given for `C[C@H](NC(=O)[C@@H]1CCCN1C(=O)[C@@H]1CCCN1C(=O)[C@@H](O)[C@H](N)Cc1ccccc1)C(N)=O` [apstatin, N-[(2S, 3R)-3-amino-2-hydroxy-4-phenylbutanoyl]-L-prolyl-L-prolyl-Lalaninamide]?
A: IC50 [1]: > 800 µM; IC50 [2]: > 800 µM; IC50 (endopeptidase 24.15): > 800 µM; dose at which Bk potentiation has been observed [3]: 0.08 to 0.8 mg/kg
